From patent publication US12077503B2, “Substituted cyclic amides and their use as herbicides” (FMC CORPORATION, priority 2015, dated 2024)
Where two headings read alike, the source gives them in different places.

Tests used:
Type in all cases: in vivo
[1] = tested on: pigweed (Amaranthus retroflexus); assay: Test A postemergence; settings: Amaranthus retroflexus, post-emergence, 240 h; for pest or weed control at 125 g/ha: 125 g ai/ha, read-out: Pigweed plant response rating (0 to 100 scale); for pest or weed control at 500 g/ha: 500 g ai/ha, visual injury, 0 to 100 scale (0 no effect, 100 complete control), approx. 10 d, read-out: Plant response rating, Pigweed
How it was run: (§1)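 Compounds were formulated in a non-phytotoxic solvent mixture with surfactant and applied as a preemergence directed soil spray after seeding, or sprayed postemergence over plants 2 to 10 cm tall at the one- to two-leaf stage. Evaluation after about 10 d compared treated with untreated controls, using a scale from 0 (no effect) to 100 (complete control).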

[2] = tested on: wheat (Triticum aestivum); assay: Test A postemergence; settings: Triticum aestivum, post-emergence, 240 h; for plant injury at 125 g/ha: 125 g ai/ha, read-out: Wheat plant response rating (0 to 100 scale); for plant injury at 500 g/ha: 500 g ai/ha, visual injury, 0 to 100 scale (0 no effect, 100 complete control), approx. 10 d, read-out: Plant response rating, Wheat
How it was run: as §1

[3] = tested on: Galium (catchweed bedstraw, Galium aparine); assay: Test A postemergence; settings: Galium, post-emergence, 240 h; for pest or weed control at 125 g/ha: 125 g ai/ha, read-out: Galium plant response rating (0 to 100 scale); for pest or weed control at 500 g/ha: 500 g ai/ha, visual injury, 0 to 100 scale (0 no effect, 100 complete control), approx. 10 d, read-out: Plant response rating, Galium
How it was run: as §1

[4] = tested on: giant foxtail (Setaria faberii); assay: Test A postemergence; settings: Setaria faberi, post-emergence, 240 h; for pest or weed control at 125 g/ha: 125 g ai/ha, read-out: Foxtail, Giant plant response rating (0 to 100 scale); for pest or weed control at 500 g/ha: 500 g ai/ha, visual injury, 0 to 100 scale (0 no effect, 100 complete control), approx. 10 d, read-out: Plant response rating, Foxtail, Giant
How it was run: as §1

[5] = tested on: Kochia (Kochia scoparia); assay: Test A postemergence; settings: Bassia scoparia, post-emergence, 240 h; for pest or weed control at 125 g/ha: 125 g ai/ha, read-out: Kochia plant response rating (0 to 100 scale); for pest or weed control at 500 g/ha: 500 g ai/ha, visual injury, 0 to 100 scale (0 no effect, 100 complete control), approx. 10 d, read-out: Plant response rating, Kochia
How it was run: as §1

[6] = tested on: ryegrass, Italian (Italian ryegrass, Lolium multiflorum); assay: Test A preemergence; settings: Lolium multiflorum, pre-emergence, 240 h; for pest or weed control at 125 g/ha: 125 g ai/ha
How it was run: as §1

[7] = tested on: pigweed (Amaranthus retroflexus); assay: Test A preemergence; settings: Amaranthus retroflexus, pre-emergence, 240 h; for pest or weed control at 125 g/ha: 125 g ai/ha; for pest or weed control at 500 g/ha: 500 g ai/ha
[8] = tested on: giant foxtail (Setaria faberii); assay: Test A preemergence; settings: Setaria faberi, pre-emergence, 240 h; for pest or weed control at 125 g/ha: 125 g ai/ha; for pest or weed control at 500 g/ha: 500 g ai/ha
How it was run: as §1

[9] = tested on: barnyardgrass (Echinochloa crus-galli); assay: Test A preemergence; settings: Echinochloa crus-galli, pre-emergence, 240 h; for pest or weed control at 125 g/ha: 125 g ai/ha; for pest or weed control at 500 g/ha: 500 g ai/ha
How it was run: as §1

[10] = tested on: ragweed (common ragweed, Ambrosia elatior); assay: Test A preemergence; settings: Ambrosia artemisiifolia, pre-emergence, 240 h; for pest or weed control at 125 g/ha: 125 g ai/ha; for pest or weed control at 500 g/ha: 500 g ai/ha
How it was run: as §1

[11] = tested on: Kochia (Kochia scoparia); assay: Test A preemergence; settings: Bassia scoparia, pre-emergence, 240 h; for pest or weed control at 125 g/ha: 125 g ai/ha; for pest or weed control at 500 g/ha: 500 g ai/ha
How it was run: as §1

[12] = tested on: sedge, umbrella (small-flower umbrella sedge, Cyperus difformis); assay: Test B flooded paddy test; settings: Cyperus difformis, 250 g ai/ha, Flood
How it was run: (§2)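 Greenhouse paddy pots with 2-leaf stage plants received compound by direct addition to floodwater 3 cm deep, kept at that level. Scored visually at 13–15 d versus controls (0 no effect; 100 complete control).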

[13] = tested on: rice (Oryra sativa); assay: Test B flooded paddy test; settings: Oryza sativa, 250 g ai/ha, Flood; 0 to 100 scale where 0 is no effect and 100 is complete control; read-out: Rice plant response rating
How it was run: as §2

[14] = tested on: barnyardgrass (Echinochloa crus-galli); assay: Test B flooded paddy test; settings: Echinochloa crus-galli, 250 g ai/ha, Flood; 0 to 100 scale where 0 is no effect and 100 is complete control; read-out: Barnyardgrass plant response rating
How it was run: as §2

[15] = tested on: ducksalad (Heteranthera limosa); assay: Test B flooded paddy test; settings: Heteranthera limosa, 250 g ai/ha, Flood; 0 to 100 scale where 0 is no effect and 100 is complete control; read-out: Ducksalad plant response rating
How it was run: as §2

[16] = postemergence, visual injury vs untreated controls after approx. 10 d, 0 = no effect, 100 = complete control
[17] = preemergence, 0 to 100 scale where 0 is no effect and 100 is complete control, read-out: Pigweed plant response rating
[18] = preemergence, 0 to 100 scale where 0 is no effect and 100 is complete control, read-out: Foxtail, Giant plant response rating
[19] = preemergence, 0 to 100 scale where 0 is no effect and 100 is complete control, read-out: Barnyardgrass plant response rating
[20] = preemergence, 0 to 100 scale where 0 is no effect and 100 is complete control, read-out: Ragweed plant response rating
[21] = preemergence, 0 to 100 scale where 0 is no effect and 100 is complete control, read-out: Kochia plant response rating
[22] = Postemergence, visual rating about 10 d after treatment

CN1C[C@H](c2cccc(C(F)(F)F)c2)[C@@H](C(=O)Nc2ccc(F)cc2C(F)(F)F)C1=O [Compound 1250]
pest or weed control at 125 g/ha [1, 16]: 0% | pest or weed control at 500 g/ha ([1]; Postemergence): 30% | plant injury at 125 g/ha [2, 16]: 40% | plant injury at 500 g/ha ([2]; Postemergence): 70% | pest or weed control at 125 g/ha [3, 16]: 40% | pest or weed control at 500 g/ha ([3]; Postemergence): 60% | pest or weed control at 125 g/ha [4, 16]: 80% | pest or weed control at 500 g/ha ([4]; Postemergence): 80% | pest or weed control at 125 g/ha [5, 16]: 0% | pest or weed control at 500 g/ha ([5]; Postemergence): 20% | pest or weed control at 125 g/ha ([6]; preemergence, visual injury rating, 0 to 100 scale where 0 is no effect and 100 is complete control, approximately 10 d, read-out: Ryegrass, Italian plant response rating): 50% | pest or weed control at 500 g/ha ([6]; 500 g ai/ha, preemergence, 0 to 100 scale where 0 is no effect and 100 is complete control, read-out: Ryegrass, Italian plant response rating): 50% | pest or weed control at 125 g/ha ([7]; preemergence, visual injury rating, 0 to 100 scale where 0 is no effect and 100 is complete control, approximately 10 d, read-out: Pigweed plant response rating): 30% | pest or weed control at 500 g/ha [7, 17]: 30% | pest or weed control at 125 g/ha ([8]; preemergence, visual injury rating, 0 to 100 scale where 0 is no effect and 100 is complete control, approximately 10 d, read-out: Foxtail, Giant plant response rating): 100% | pest or weed control at 500 g/ha [8, 18]: 100% | pest or weed control at 125 g/ha ([9]; preemergence, visual injury rating, 0 to 100 scale where 0 is no effect and 100 is complete control, approximately 10 d, read-out: Barnyardgrass plant response rating): 100% | pest or weed control at 500 g/ha [9, 19]: 100% | pest or weed control at 125 g/ha ([10]; preemergence, visual injury rating, 0 to 100 scale where 0 is no effect and 100 is complete control, approximately 10 d, read-out: Ragweed plant response rating): 0% | pest or weed control at 500 g/ha [10, 20]: 0% | pest or weed control at 125 g/ha ([11]; preemergence, visual injury rating, 0 to 100 scale where 0 is no effect and 100 is complete control, approximately 10 d, read-out: Kochia plant response rating): 0% | pest or weed control at 500 g/ha [11, 21]: 40% | pest or weed control at 250 g/ha ([12]; 0 to 100 scale where 0 is no effect and 100 is complete control, read-out: Sedge, Umbrella plant response rating): 0% | pest or weed control at 250 g/ha [13]: 0% | pest or weed control at 250 g/ha [14]: 50% | pest or weed control at 250 g/ha [15]: 100%

CN1C[C@H](c2ccc3c(c2)CCO3)[C@@H](C(=O)Nc2ccccc2F)C1=O [Compound 1321]
pest or weed control at 125 g/ha [1, 22]: 0% | pest or weed control at 500 g/ha ([1]; Postemergence): 0% | plant injury at 125 g/ha [2, 22]: 20% | plant injury at 500 g/ha ([2]; Postemergence): 50% | pest or weed control at 125 g/ha [3, 22]: 30% | pest or weed control at 500 g/ha ([3]; Postemergence): 50% | pest or weed control at 125 g/ha [4, 22]: 90% | pest or weed control at 500 g/ha ([4]; Postemergence): 90% | pest or weed control at 125 g/ha [5, 22]: 0% | pest or weed control at 500 g/ha ([5]; Postemergence): 50% | pest or weed control at 125 g/ha ([6]; Preemergence, 0 to 100 scale (0 no effect, 100 complete control), read-out: Plant response rating, Ryegrass, Italian): 0% | pest or weed control at 500 g/ha [7, 17]: 0% | pest or weed control at 125 g/ha ([7]; Preemergence, 0 to 100 scale (0 no effect, 100 complete control), read-out: Plant response rating, Pigweed): 0% | pest or weed control at 500 g/ha [8, 18]: 100% | pest or weed control at 125 g/ha ([8]; Preemergence, 0 to 100 scale (0 no effect, 100 complete control), read-out: Plant response rating, Foxtail, Giant): 90% | pest or weed control at 500 g/ha [9, 19]: 100% | pest or weed control at 125 g/ha ([9]; Preemergence, 0 to 100 scale (0 no effect, 100 complete control), read-out: Plant response rating, Barnyardgrass): 90% | pest or weed control at 500 g/ha [10, 20]: 50% | pest or weed control at 125 g/ha ([10]; Preemergence, 0 to 100 scale (0 no effect, 100 complete control), read-out: Plant response rating, Ragweed): 50% | pest or weed control at 500 g/ha [11, 21]: 80% | pest or weed control at 125 g/ha ([11]; Preemergence, 0 to 100 scale (0 no effect, 100 complete control), read-out: Plant response rating, Kochia): 50% | pest or weed control at 250 g/ha ([12]; 360 h, visually evaluated after 13 to 15 d, read-out: Plant response rating, Sedge, Umbrella (0 to 100 scale where 0 is no effect and 100 is complete control)): 0% | pest or weed control at 250 g/ha [13]: 0% | pest or weed control at 250 g/ha [14]: 90% | pest or weed control at 250 g/ha [15]: 85%
